“Also recorded” adds a separate entry of the source. d = 2'-deoxy (DNA); r = 2'-OH (RNA)

Four compounds from US12012597B2, “Cancer treatment using siRNA to modulate expression of PRDM2/RIZ protein” (ARIZ Precision Medicine, Inc., priority 2020, dated 2024) can be followed below.

Data set [1] concerns HCT116 colon cancer cells. As to the kind of experiment: Cell viability after siRNA transfection with or without 5-fluorouracil. The conditions noted are these: 5-fluorouracil 25 μM added one day after transfection, after four days, relative to untreated cells, FIG. 4.
Description: Where indicated, 5-fluorouracil (25 μM) was added one day after transfection. Media (with 5-flurouracil where indicated) was changed after two days, and after four days, percent cell viability was determined, relative to untreated cells.
For data set [2], the system named is RIZ2 mRNA. As to the kind of experiment: RIZ2 mRNA level in HCT116 cells after siRNA. In kind it is cell-based, human. Conditions: FIG. 5. The procedure:
(§1) RIZ1 and RIZ2 mRNA levels were determined in control and siRNA-transfected cells using qPCR. RNA was extracted from cells 48 hours after transfection, and mRNA expression levels were detected using PRDM isoform A and PRDM isoform C specific PCR primers. RIZ mRNA expression levels were determined relative to GAPDH mRNA expression levels. Scrambled siRNA was used a negative control, and Tox (Transfection control siRNA, commercially available) was used a positive control.

For the next data set, the system named is A549 lung cancer cells. As to the kind of experiment: MTS cell viability assay after siRNA transfection. The class given is cell-based, human. The conditions noted are these: 100 nM siRNA; for Viability of the A549 lung cancer cells (change): DharmaFECT 1, after four days, FIG. 2; for relative cell viability: single exposure, after four days, relative to untreated cells.

Data set [3] concerns KMS-11 multiple myeloma cell line. As to the kind of experiment: Viability of multiple myeloma cells after siRNA. The conditions noted are these: comparable to the Tox positive control, FIG. 8. In kind it is cell-based. From the text:
In this example, the effect of siRNA ARIZ-011 was further tested on a multiple myeloma cell line, KMS-11. KMS-11 cell line was obtained from commercially available sources, and was originally derived from […] multiple myeloma patient's cells. These cells have characteristics of plasma cells.

In data set [4] the test system is RIZ1 mRNA. As to the kind of experiment: qPCR of RIZ1 mRNA in siRNA-transfected A549 cells. In kind it is cell-based, human. The conditions noted are these: qPCR relative to GAPDH mRNA. The procedure:
as §1

For data set [5], the system named is RIZ1 mRNA. As to the kind of experiment: RIZ1 mRNA level in HCT116 cells after siRNA. In kind it is cell-based, human. Conditions: FIG. 5. The method, then: as §1
The subject of data set [6] is RIZ2 mRNA. As to the kind of experiment: qPCR of RIZ2 mRNA in siRNA-transfected A549 cells. The class given is cell-based, human. The procedure:
as §1

Regarding `O=c1[nH]cc(F)c(=O)[nH]1` [5-fluorouracil], in data set [1] (Homo sapiens, HCT-116, read-out: decreased cell viability (killing) of HCT116 colon cancer cells, siRNA 100 nM), the cytotoxicity at 25 µM is 72 to 74%. Further, in data set [1] (siRNA 100 nM), the “decreased cell viability (killing) of HCT116 colon cancer cells” value amounted to 72%.
As for “ARIZ-011: Unmodified double-stranded siRNA, sense SEQ ID NO: 1, antisense SEQ ID NO: 10, complementary to both RIZ1 and RIZ2 mRNA (sense GGGAGAGAUGAGAGAGAAATT; antisense UUUCUCUCUCAUCUCUCCCTT; RNA, all phosphodiester, T or U not given here)”, in the data set on RIZ2 mRNA [2], the “expression level of RIZ2 (change)” value is “selectively decreased”. Further, in the data set on A549 lung cancer cells, the “Viability of the A549 lung cancer cells (change)” value (from here on “Viability … (change)”) is given as “decreased” and the relative cell viability is 30%. Further, in data set [3], the “KMS-11 cell death in culture” value was “about 80%”. The “RIZ1 mRNA level (change)” value in the data set with RIZ1 mRNA [4] is “simultaneous increase in RIZ1 mRNA; also recorded: upregulated expression”. The “RIZ1 mRNA (change)” value in the data set with RIZ1 mRNA [5] is given as “concurrent increase”. For the same compound, the “decrease in RIZ2 mRNA” value with RIZ2 mRNA [6] (48 hours after transfection, relative to GAPDH mRNA, FIG. 3) is listed as approximately 75%. Also, the “RIZ2 mRNA level (change)” value with RIZ2 mRNA [6] (qPCR relative to GAPDH mRNA) was “knockdown”.
As for “ARIZ-012: Double-stranded siRNA, sense SEQ ID NO: 2, antisense SEQ ID NO: 12, complementary to sequences shared by RIZ1 and RIZ2 mRNA (sense GUGUAGUGCUGUAAAGAAATT; antisense UUUCUUUACAGCACUACACTT; sugars from the 5' end r19 d2, backbone and T or U not given here)”, the “Viability … (change)” value in the data set with A549 lung cancer cells is given as “decreased”.
“ARIZ-015: Double-stranded siRNA, sense SEQ ID NO: 5, antisense SEQ ID NO: 15, complementary to last 19 bases at 3′ end of RIZ2 mRNA (sense GGACUUCAGGAACUUCCUGTT; antisense CAGGAAGUUCCUGAAGUCCTT; sugars from the 5' end r19 d2, backbone and T or U not given here)”: in the data set with A549 lung cancer cells, the “Viability … (change)” value is “decreased” and the relative cell viability amounted to 70%.
